From the NIST ThermoML archive (doi:10.1016/j.jct.2012.06.009)
Numbers after ± are expanded uncertainties.

Assay: activity coefficient (dimensionless); of the first substance listed, at infinite dilution; xn = mol fraction of the nth substance listed
Conditions: 101 kPa, Liquid, Chromatography, x1 = 0

activity coefficient (314.1 K)	activity coefficient (314.24 K)	activity coefficient (333.26 K)	activity coefficient (333.38 K)	activity coefficient (353.25 K)	activity coefficient (353.3 K)	SMILES	further results
–	1.57 ± 0.13	1.53 ± 0.13	1.54 ± 0.13	1.5 ± 0.13	–	CCCCCC [hexane] + CCCCCCCCCCCC(=O)O	–
–	1.24 ± 0.1	1.22 ± 0.1	1.21 ± 0.1	–	1.18 ± 0.098	C=CCCCC [hex-1-ene] + CCCCCCCCCCCCCC(=O)O	–
1.65 ± 0.14	1.67 ± 0.14	1.67 ± 0.14	1.66 ± 0.14	1.59 ± 0.14	1.62 ± 0.14	CCCCCCC [heptane] + CCCCCCCCCCCC(=O)O	–
–	2.14 ± 0.18	–	1.84 ± 0.16	–	1.57 ± 0.13	CO [methanol] + CCCCCCCCCC(=O)O	activity coefficient (353.08 K): 1.46 ± 0.12
–	1.22 ± 0.1	1.2 ± 0.1	1.19 ± 0.099	1.18 ± 0.098	1.18 ± 0.097	CCc1ccccc1 [ethylbenzene] + CCCCCCCCCCCC(=O)O	–
–	1.56 ± 0.13	1.5 ± 0.13	1.49 ± 0.13	–	1.43 ± 0.12	C=CCCCC [hex-1-ene] + CCCCCCCCCC(=O)O	–
–	1.92 ± 0.17	1.73 ± 0.15	1.71 ± 0.15	–	1.56 ± 0.13	CO [methanol] + CCCCCCCCCCCCCC(=O)O	activity coefficient (338.29 K): 2 ± 0.17; activity coefficient (358.31 K): 1.6 ± 0.14
1.87 ± 0.16	1.9 ± 0.16	1.83 ± 0.16	1.82 ± 0.16	–	1.75 ± 0.15	CCCCCCC [heptane] + CCCCCCCCCC(=O)O	–
1.56 ± 0.13	1.58 ± 0.13	1.35 ± 0.11	1.36 ± 0.11	1.2 ± 0.1	1.15 ± 0.097	CC(C)O [propan-2-ol] + CCCCCCCCCC(=O)O	–

More lines, now with the values behind:

SMILES	activity coefficient (314.1 K)	activity coefficient (314.24 K)	activity coefficient (333.26 K)	activity coefficient (333.38 K)	activity coefficient (353.25 K)	activity coefficient (353.3 K)	further results
C1CCCCC1 [cyclohexane] + CCCCCCCCCC(=O)O	1.44 ± 0.12	1.46 ± 0.12	1.39 ± 0.12	1.39 ± 0.12	1.35 ± 0.12	1.31 ± 0.11	–
C1CCCCC1 [cyclohexane] + CCCCCCCCCCCCCC(=O)O	1.09 ± 0.09	1.09 ± 0.09	–	1.07 ± 0.088	1.05 ± 0.087	1.02 ± 0.085	–
Cc1ccccc1 [toluene] + CCCCCCCCCCCCCC(=O)O	–	–	–	–	–	–	activity coefficient (338.27 K): 0.926 ± 0.076; activity coefficient (338.29 K): 1.01 ± 0.083; activity coefficient (348.2 K): 0.958 ± 0.079; activity coefficient (358.33 K): 0.93 ± 0.077
CCC(C)O (configuration not stated) [butan-2-ol] + CCCCCCCCCCCCCCCC(=O)O	–	–	–	–	–	–	activity coefficient (340.19 K): 1.26 ± 0.1; activity coefficient (348.01 K): 1.2 ± 0.1; activity coefficient (358.32 K): 1.12 ± 0.092
ClC=C(Cl)Cl [trichloroethene] + CCCCCCCCCCCCCC(=O)O	0.847 ± 0.07	0.843 ± 0.07	0.842 ± 0.07	0.838 ± 0.07	0.842 ± 0.07	0.824 ± 0.069	–
CCO [ethanol] + CCCCCCCCCCCCCC(=O)O	1.82 ± 0.16	1.79 ± 0.15	1.67 ± 0.14	1.67 ± 0.14	1.53 ± 0.13	1.52 ± 0.13	–
CC(C)O [propan-2-ol] + CCCCCCCCCCCCCCCC(=O)O	–	–	–	–	–	–	activity coefficient (340.19 K): 1.47 ± 0.12; activity coefficient (348.01 K): 1.41 ± 0.12; activity coefficient (358.32 K): 1.29 ± 0.11
C=CCCCC [hex-1-ene] + CCCCCCCCCCCC(=O)O	–	–	–	–	–	–	activity coefficient (329.2 K): 1.39 ± 0.12; activity coefficient (343.39 K): 1.39 ± 0.12; activity coefficient (358.06 K): 1.34 ± 0.11
CCCCO [butan-1-ol] + CCCCCCCCCCCC(=O)O	–	1.7 ± 0.14	1.54 ± 0.13	1.51 ± 0.13	1.34 ± 0.11	1.36 ± 0.11	–
Clc1ccccc1 [chlorobenzene] + CCCCCCCCCCCC(=O)O	1.11 ± 0.091	1.12 ± 0.092	1.08 ± 0.089	–	1.07 ± 0.088	–	activity coefficient (343.65 K): 1.07 ± 0.089
CC(C)CC(C)(C)C [2,2,4-trimethylpentane] + CCCCCCCCCCCCCC(=O)O	–	–	–	–	–	–	activity coefficient (338.27 K): 1.53 ± 0.13; activity coefficient (348.3 K): 1.5 ± 0.13; activity coefficient (358.33 K): 1.45 ± 0.12
CC(C)CC(C)(C)C [2,2,4-trimethylpentane] + CCCCCCCCCCCC(=O)O	1.75 ± 0.15	1.77 ± 0.15	1.7 ± 0.14	1.72 ± 0.15	1.67 ± 0.14	1.69 ± 0.14	–
ClC=C(Cl)Cl [trichloroethene] + CCCCCCCCCCCC(=O)O	0.952 ± 0.078	0.967 ± 0.079	0.944 ± 0.078	0.951 ± 0.078	0.933 ± 0.077	–	–
COc1ccccc1 [anisole] + CCCCCCCCCCCCCC(=O)O	1.32 ± 0.11	1.3 ± 0.11	1.29 ± 0.11	1.27 ± 0.11	1.24 ± 0.1	1.21 ± 0.1	–
CC(C)=O [acetone] + CCCCCCCCCCCCCC(=O)O	1.43 ± 0.12	1.46 ± 0.12	1.36 ± 0.11	1.35 ± 0.11	1.3 ± 0.11	1.27 ± 0.11	–
CCO [ethanol] + CCCCCCCCCCCC(=O)O	1.92 ± 0.17	2.02 ± 0.17	–	1.79 ± 0.15	1.56 ± 0.13	1.57 ± 0.13	–
CCCCO [butan-1-ol] + CCCCCCCCCCCCCC(=O)O	1.49 ± 0.13	1.54 ± 0.13	1.45 ± 0.12	1.42 ± 0.12	1.22 ± 0.11	1.32 ± 0.12	–
CO [methanol] + CCCCCCCCCCCCCCCC(=O)O	–	–	–	–	–	–	activity coefficient (340.17 K): 2.09 ± 0.18; activity coefficient (347.93 K): 1.94 ± 0.17; activity coefficient (358.23 K): 1.8 ± 0.15
CCCCCCC [heptane] + CCCCCCCCCCCCCCCC(=O)O	–	–	–	–	–	–	activity coefficient (340.19 K): 1.4 ± 0.12; activity coefficient (348.01 K): 1.38 ± 0.12; activity coefficient (358.22 K): 1.37 ± 0.12
C1CCCCC1 [cyclohexane] + CCCCCCCCCCCC(=O)O	1.29 ± 0.11	1.28 ± 0.11	–	1.25 ± 0.1	1.2 ± 0.1	1.2 ± 0.1	–
Clc1ccccc1 [chlorobenzene] + CCCCCCCCCCCCCC(=O)O	0.983 ± 0.081	0.998 ± 0.082	0.996 ± 0.082	0.982 ± 0.081	0.979 ± 0.081	0.961 ± 0.079	–
ClC(Cl)Cl [trichloromethane] + CCCCCCCCCCCCCCCC(=O)O	–	–	–	–	–	–	activity coefficient (340.19 K): 0.748 ± 0.063; activity coefficient (348.01 K): 0.739 ± 0.063; activity coefficient (358.22 K): 0.759 ± 0.064
CCC(C)O (configuration not stated) [butan-2-ol] + CCCCCCCCCCCC(=O)O	1.28 ± 0.11	1.3 ± 0.11	–	1.17 ± 0.097	1.06 ± 0.088	1.08 ± 0.089	–
ClCc1ccccc1 [(chloromethyl)benzene] + CCCCCCCCCCCCCC(=O)O	–	–	1.61 ± 0.14	1.6 ± 0.14	1.57 ± 0.13	1.55 ± 0.13	–
Cc1ccccc1 [toluene] + CCCCCCCCCC(=O)O	1.15 ± 0.095	1.17 ± 0.097	1.12 ± 0.093	1.12 ± 0.092	1.14 ± 0.095	1.16 ± 0.096	–
CCO [ethanol] + CCCCCCCCCCCCCCCC(=O)O	–	–	–	–	–	–	activity coefficient (340.19 K): 1.93 ± 0.17; activity coefficient (348.01 K): 1.8 ± 0.15; activity coefficient (358.23 K): 1.62 ± 0.14
ClCCCl [1,2-dichloroethane] + CCCCCCCCCCCCCC(=O)O	1.21 ± 0.1	1.24 ± 0.1	1.2 ± 0.099	1.18 ± 0.098	1.13 ± 0.094	1.13 ± 0.093	–
CC(C)=O [acetone] + CCCCCCCCCCCCCCCC(=O)O	–	–	–	–	–	–	activity coefficient (340.17 K): 1.49 ± 0.13; activity coefficient (340.19 K): 1.49 ± 0.13; activity coefficient (347.93 K): 1.41 ± 0.12; activity coefficient (348.01 K): 1.42 ± 0.12; activity coefficient (358.23 K): 1.32 ± 0.11; activity coefficient (358.32 K): 1.34 ± 0.11
